In patent US5362743A, “Aminoquinoline derivatives” (Pfizer Inc., priority 1993, dated 1994):

Experiments:
gastric H^+ /K^+ -ATPase = molecular target: T1, gastric H^+ /K^+ -ATPase (Sus scrofa, UniProt P19156); assay: gastric H+/K+-ATPase inhibition in isolated porcine gastric microsomes (phosphate release); assay type: biochemical
T1 construct: preparing the microsomes from hog gastric mucosa; from tissue; host or cells: hog gastric mucosa (microsomes)
Protocol: The activity of the compounds of the present invention as anti-ulcer agents, useful in the treatment of gastric disease in mammals, such as peptic ulcers, etc., is assessed by their ability to inhibit gastric H^+ /K^+ -ATPase, using isolated porcine gastric microsomes and essentially employing a modification of the method first described by G. Saccomani et al., as initially reported in Biochimica Biophysica Acta, Vol. 465, p. 311 (1977). The modification involves preparing the microsomes from hog gastric mucosa according to the procedure first described by L-A. Yeh et al., in Membrane Biochemistry, Vol. 9, p. 129 (1991). The H^+ /K^+ -ATPase enzyme activity is assayed according to the procedure described by N. Chang et al., in Biochimica Biophysica Acta, Vol. 464, p. 313 (1977), using a medium containing […], 3 mM ATP, 50 mM Tris-HCl (pH 7.4) and 2 mM MgCl2 with or without 10 mM KCl in a final volume of 1.1 mL. The incubation step is initially carried out at 37° C. for a period of 15 minutes. The reaction is then terminated by the addition of 100 μL of 50% TCA (trichloroacetic acid). Phosphate release is next measured spectrophotometrically in the manner described by C. H. Fiske et al., in the Journal of Biological Chemistry, Vol. 66, p. 375 (1925).

osteoclasts = assay: bone slice assay: bone resorption by isolated osteoclasts (scanning electron microscopy); assay type: cell-based, neonatal rat; settings: isolated osteoclasts on bone slices
Protocol: 155, (1985), as well as in Endocrinology, Vol. 116, p. 234 (1985). In this assay, osteoclasts are mechanically disaggregated from neonatal rat long bones into Hepes-buffered medium 199 (available from Flow Laboratories of Irvine, […] in the United Kingdom). The suspension is agitated with a pipette and the larger fragments were allowed to settle for a period of 30 seconds. The cells are then added to two wells of a multiwell-dish containing bone slices, with each of said slices measuring 2.5 mm^2. After incubating at 37° C. for a period of 15 minutes, the aforesaid bone slices are then removed, washed in medium 199 and placed in individual wells of a 96-well plate (also available from Flow Laboratories). These latter bone slices are then incubated overnight in a total volume of […] of culture medium consisting of 10% newborn calf-serum (from Flow Laboratories) in Hanks-buffered MEM (also from Flow Laboratories) in the presence or absence of the test compound. Bone resorption is quantified by means of scanning electron microscopy. […] The number and size of the osteoclastic excavations, and the plan area of bone resorbed is recorded. Differences between groups are then analyzed by means of Student's t-Test.

T1 sequence (P19156 2-1034 limits assumed): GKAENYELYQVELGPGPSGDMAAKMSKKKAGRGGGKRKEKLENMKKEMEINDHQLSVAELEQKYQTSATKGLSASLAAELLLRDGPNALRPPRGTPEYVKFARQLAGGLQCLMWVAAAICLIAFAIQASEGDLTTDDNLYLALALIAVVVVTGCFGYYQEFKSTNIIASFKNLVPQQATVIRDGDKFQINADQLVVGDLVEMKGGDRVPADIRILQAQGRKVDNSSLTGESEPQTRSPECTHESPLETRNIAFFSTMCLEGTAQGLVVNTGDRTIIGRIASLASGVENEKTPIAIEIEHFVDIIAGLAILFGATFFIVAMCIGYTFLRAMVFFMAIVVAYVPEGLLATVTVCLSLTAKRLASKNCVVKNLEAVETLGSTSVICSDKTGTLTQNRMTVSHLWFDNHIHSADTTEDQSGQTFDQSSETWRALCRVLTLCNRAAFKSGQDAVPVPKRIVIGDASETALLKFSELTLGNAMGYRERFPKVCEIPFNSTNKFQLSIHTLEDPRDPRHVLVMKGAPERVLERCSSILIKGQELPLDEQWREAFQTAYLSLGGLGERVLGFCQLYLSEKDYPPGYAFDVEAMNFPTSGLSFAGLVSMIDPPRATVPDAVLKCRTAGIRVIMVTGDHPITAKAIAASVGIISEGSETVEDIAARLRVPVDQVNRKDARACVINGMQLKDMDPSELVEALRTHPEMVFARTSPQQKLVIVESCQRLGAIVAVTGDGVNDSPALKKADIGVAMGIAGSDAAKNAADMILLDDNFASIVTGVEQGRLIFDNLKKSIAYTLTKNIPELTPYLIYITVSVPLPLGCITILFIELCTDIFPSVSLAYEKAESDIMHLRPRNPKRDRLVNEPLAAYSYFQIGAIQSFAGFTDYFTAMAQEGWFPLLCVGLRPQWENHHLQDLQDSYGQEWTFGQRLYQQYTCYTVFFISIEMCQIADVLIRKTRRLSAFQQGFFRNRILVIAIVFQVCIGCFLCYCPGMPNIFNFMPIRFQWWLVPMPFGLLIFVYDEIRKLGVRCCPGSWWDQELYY
T1 sequence (P18434 whole entry partner): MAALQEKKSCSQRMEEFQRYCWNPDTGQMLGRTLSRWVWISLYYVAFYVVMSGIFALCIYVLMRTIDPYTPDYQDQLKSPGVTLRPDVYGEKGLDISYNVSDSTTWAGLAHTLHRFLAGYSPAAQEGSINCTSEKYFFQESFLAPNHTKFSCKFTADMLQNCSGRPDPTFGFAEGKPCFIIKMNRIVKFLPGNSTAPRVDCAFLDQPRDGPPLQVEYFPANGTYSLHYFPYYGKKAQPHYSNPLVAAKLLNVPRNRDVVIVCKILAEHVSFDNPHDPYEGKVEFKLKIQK

inhibition at 10 µM (gastric H^+ /K^+ -ATPase; at 10 μM): ~50%
nature of H+/K+-ATPase inhibition (gastric H^+ /K^+ -ATPase; porcine gastric microsomes): both reversibly and specifically
IC50 (gastric H^+ /K^+ -ATPase; porcine gastric microsomes, 37° C., 15 minutes, pH 7.4, read-out: IC50 value range, inhibition of gastric H+/K+-ATPase): 10 to 20 µM
SMILES: CCOC(=O)CCC(=O)c1cnc2c(OC)cccc2c1Nc1ccccc1C [Example 1, 3-(3-ethoxycarbonylpropionyl)-8-methoxy-4-(2-methylphenylamino)quinoline]
minimal effective concentration (osteoclasts; Rattus norvegicus, Osteoclast, overnight incubation, dose-responsive, read-out: concentration level at which statistically significant inhibition of bone resorption occurs): 0.1 µM
inhibition of lacunae formation and bone resorption (in words) (osteoclasts): potent inhibitor of lacunae formation and of resultant bone resorption
